Source: patent US5069895A, “Methods for the treatment of alcohol intoxication and dependence” (priority 1989, dated 1991)
Like-named read-outs stand apart in the source and are kept apart here.

What was measured:
mice = details: cited from earlier work; for effect on symptoms of ethanol intoxication: Dar et al. (1985); for intoxicating effect of ethanol: administration over a 10-day period to mice, Dar and Wooles (1986); for ethanol-induced ataxia: pretreated mice, Dar et al. (1987)
NG108-15 cells [1] = test: acute effect of ethanol on endogenous cAMP levels; assay type: cell-based
Procedure: NG108-15 cells were grown in defined media as described (Gordon et al. (1986) supra.) to a final density of 12-20×10^6 cells per flask. […] Bars represent means ±SEM, n=4-9.

S49 wild type cells [2] = test: agonist stimulation of cAMP levels over basal
Procedure: (§1) S49 wild type (WT) and adenosine transport mutants (80-2A6 and 160-D4) were grown in defined media (11, without phytohemagglutinin) with 1 U/ml ADA for at least 2 weeks. They were then grown in the presence or absence of 100 mM ethanol with or without 1.5 U/ml ADA for 48 hours. Accumulation of adenosine over 5 min was determined by incubating 1.0×10^7 cells/ml in sterilized PBS in the absence or presence of 200 mM ethanol. Extracellular adenosine concentrations were determined as in FIG. 2. Accumulation of adenosine over 24 hours in the absence or presence of 100 mM ethanol was determined as described by Green (1980) supra.. Assays for receptor-stimulated cAMP levels were carried out as in FIG. 3. […] Values represent means ±SEM. Number of determinations in indicated in parentheses.

[3] = system: C1300 neuroblastoma cells; details: endogenously released, overnight culture; cited from earlier work
NG108-15 cells [4] = details: 200 mM ethanol, 10 min
Procedure: NG108-15 cells (5×10^6 cells/well) were incubated with 2 ml of PBS in the presence or absence of 200 mM ethanol for 10 min. Fluorescent derivatives of adenosine were prepared (Green (1980) supra.) and injected onto a reverse-phase HPLC column equilibrated with 1.2 mM KPO4, pH 5 and eluted with a 0-60% methanol gradient. Peak areas were compared with those of known amounts of 1,N^6 -ethenoadenosine.

[5] = system: S49 adenosine transport mutant 80-2A6
Procedure: as §1

S49 wild type cells [6] = system: S49 wild type cells
Procedure: as §1

S49 wild type cells [7] = test: receptor-stimulated cAMP levels after chronic ethanol; assay type: cell-based; details: for activity at 100000 µM: wild type, 100 mM EtOH 48 hr
Procedure: as §1

[8] = system: S49 adenosine transport mutant 160-D4; test: cells; details: 48 h
Procedure: as §1

[9] = system: S49 adenosine transport mutant 80-2A6; test: cells; details: 48 h
Procedure: as §1

cultured lymphocytes = test: cells; details: for activation at 100000 µM: Homo sapiens, Lymphocyte, 5 min
Procedure: Lymphocytes from alcoholics and nonalcoholics were grown in culture for 6 days, and 100 mM ethanol was added for 24 hours. The cells were washed, preincubated for 5 minutes in the absence of ethanol, and then incubated in the absence and presence of 100 mM ethanol for 5 minutes. Extracellular adenosine was measured by HPLC (n=5-7 for alcoholics and nonalcoholics).

[10] = system: adenosine transport in freshly isolated lymphocytes; details: lymphocytes from alcoholics vs nonalcoholics, 200 mM ethanol 3 min, uptake at 10 seconds
Procedure: Uptake of [^3 H]-adenosine in freshly isolated lymphocytes from nonalcoholics and actively drinking alcoholics was also measured.

[11] = read-out: cAMP levels, 1 uM PGE1
[12] = read-out: cAMP levels, 100 uM PIA

OCCN(CCO)c1nc(N2CCCCC2)c2nc(N(CCO)CCO)nc(N3CCCCC3)c2n1 [Dipyridamole]
effect on symptoms of ethanol intoxication (mice): potentiating effect on certain symptoms of ethanol intoxication

CC(C)Cn1c(=O)n(C)c(=O)c2[nH]cnc21 [IBMX, isobutylmethylxanthine]
effect on ethanol-induced increase in cAMP levels (NG108-15 cells [1]; co-incubation with ethanol 10 min, 1 U/ml ADA or isobutylmethylxanthine): completely blocked | intoxicating effect of ethanol (mice): increased | ethanol-induced ataxia (mice): significant potentiation

CCCCC[C@H](O)/C=C/[C@H]1[C@H](O)CC(=O)[C@@H]1CCCCCCC(=O)O [PGE1]
maximal fold induction (S49 wild type cells [2]; Mus musculus, read-out: increase in cAMP levels over basal): 13.5 ± 3.5

C[C@H](Cc1ccccc1)Nc1ncnc2c1ncn2[C@@H]1O[C@H](CO)[C@@H](O)[C@H]1O [PIA]
increase in cAMP levels over basal (S49 wild type cells [2]; maximally-effective concentration): 1.92±0.41 fold

Nc1ncnc2c1ncn2[C@@H]1O[C@H](CO)[C@@H](O)[C@H]1O [adenosine]
concentration sufficient to desensitize adenosine receptor-dependent cAMP production [3]: 10 to 20 nM

Cn1c(=O)c2c(ncn2C)n(C)c1=O [caffeine]
intoxicating effect of ethanol (mice): increased | ethanol-induced ataxia (mice): significant potentiation

CCO [ethanol]
activation at 200000 µM (NG108-15 cells [1]; Homo sapiens, NG108-15, 10 min, 200 mM ethanol, 10 min, no added agonist, read-out: increase in intracellular cAMP concentration): 60% | extracellular adenosine concentration (NG108-15 cells [4]): 37±1.2 nM/5×10^6 cells | extracellular adenosine, EtOH ([5]; 80-2A6, 5 min, EtOH 200 mM): 0 nM/10^7 cells | extracellular adenosine, EtOH ([5]; 80-2A6, 24 hr, EtOH 100 mM): 0 nM/10^7 cells | extracellular adenosine, EtOH (S49 wild type cells [6]; 5 min, EtOH 200 nM as printed): 17.6 ± 3.6 nM/10^7 cells | extracellular adenosine, EtOH (S49 wild type cells [6]; 24 hr, EtOH 100 nM as printed): 56.7 ± 10.2 nM/10^7 cells | activity at 100000 µM (S49 wild type cells [7]; [11]): 36 ± 6% | activity at 100000 µM (S49 wild type cells [7]; [12]): 65 ± 7% | activity at 100000 µM [8, 11]: 98 ± 7% | activity at 100000 µM [8, 12]: 94 ± 9% | activity at 100000 µM [9, 11]: 82 ± 7% | activity at 100000 µM [9, 12]: 115 ± 11% | activation at 100000 µM (cultured lymphocytes; read-out: increase in extracellular adenosine on rechallenge, lymphocytes from alcoholics, after chronic ethanol, rechallenge 100 mM ethanol): 73% | activation at 100000 µM (cultured lymphocytes; read-out: increase in extracellular adenosine, lymphocytes from alcoholics, 100 mM ethanol 5 min): 37% | activation at 100000 µM (cultured lymphocytes; read-out: increase in extracellular adenosine, lymphocytes from nonalcoholics, 100 mM ethanol 5 min): 17% | increase in extracellular adenosine on rechallenge (cultured lymphocytes; lymphocytes from nonalcoholics, after 100 mM ethanol 24 hours, rechallenge): did not increase extracellular adenosine | inhibition of adenosine uptake [10]: less inhibition by ethanol compared to uptake in cells from nonalcoholics

OC[C@H]1O[C@@H](n2cnc3c(O)ncnc32)[C@H](O)[C@@H]1O [inosine, reference compound]
desensitization of the adenosine receptor (S49 wild type cells [7]; S49 wild type cells exposed 48 hr, data not shown): did not desensitize the adenosine receptor

Cn1c(=O)c2[nH]cnc2n(C)c1=O [theophylline]
effect on symptoms of ethanol intoxication (mice): ameliorated certain symptoms of intoxication while having no effect on others | intoxicating effect of ethanol (mice): appeared to have no effect | ethanol-induced ataxia (mice): significant potentiation
